Among the data in patent publication US20240343694A1, “PYRIMIDINE DERIVATIVE, METHOD FOR PREPARING SAME, AND PHARMACEUTICAL COMPOSITION FOR PREVENTING OR TREATING CANCER COMPRISING SAME AS ACTIVE INGREDIENT” (KOREA RESERARCH INSTITUTE OF CHEMICAL TECHNOLOGY, priority 2021, published 2024) are IC50 values, retold here.

Type in all cases: biochemical
Common to all, as to details: recombinant enzyme, 37° C. for 2 hours

Assay [1] concerns the target HER2 A775_G776insYVMA (Homo sapiens (Human), UniProt P04626, INS775YVMA). Put plainly: HTRF inhibitory activity against HER2 mutant enzyme. On the procedure:
The activity of the compounds of the present invention against HER mutant enzymes was measured using the HTRF system purchased by Cisbio as follows. As a HER2 mutant enzyme, the HER2 A775_G776insYVMA mutant enzyme was used by purchasing a recombinant protein provided by Carna Biosciences.
The composition of the assay buffer used for activity measurement was 50 mM tris-HCl pH 7.5, 100 mM NaCl, 7.5 mM MgCl2, 3 mM KCl, 0.01% tween 20, 0.1% BSA, and 1 mM DTT. In addition thereto, the enzymatic reaction was performed using a peptide substrate labeled with ATP at a concentration of […] and biotin at a concentration of […]. The analysis of the activity inhibitory effect of the compounds on HER2 A775_G776insYVMA mutation was performed according to the following method. • Component 1:4 μL of HER2 A775_G776insYVMA mutant enzyme • Component 2:2 μL of compound solution • Component 3:4 μL of ATP and a biotin labeled peptide
The enzyme reaction begins by first mixing component 1 and component 2 and then adding component 3 thereto. After the reaction at 37° C. for 2 hours, […] of a measurement solution consisting of streptavidin-XL665 and a europium-labeled anti-phosphotyrosine antibody purchased from Cisbio was added to the enzyme reaction solution and reacted at room temperature for 1 hour. […] The measured values at 7 compound concentrations were analyzed using the Prism program (version 5.01, Graphpad Software, Inc.), and the IC50 (μM) values, which are measures of the compounds' inhibitory ability, were calculated.
(In TR-FRET formats the signal depends on donor and acceptor labels being close together.)

Assay [2] concerns the target EGFR del19 (Homo sapiens (Human), UniProt P00533, DEL746-750). The assay is described as follows: HTRF inhibitory activity against EGFR mutant enzyme (EGFR del19). On the procedure:
(§1) The activity of the compounds of the present invention against EGFR mutant enzymes was measured using the HTRF system purchased from Cisbio as follows. For an EGFR mutant enzyme, the EGFR del19 enzyme was a recombinant protein purchased from Carna Biosciences, and the EGFR A763_Y764insFHEA enzyme was a recombinant protein purchased from SignalChem, respectively.
(§2) The composition of the assay buffer used for activity measurement was 50 mM tris-HCl pH 7.5, 100 mM NaCl, 7.5 mM MgCl2, 3 mM KCl, 0.01% tween 20, 0.1% BSA, and 1 mM DTT. An enzymatic reaction was performed using a peptide substrate labeled with ATP at a concentration of […] and biotin at a concentration of […]. The analysis of the inhibitory effect of the compounds on EGFR activity was performed according to the following method. • Component 1:4 μL of EGFR mutant enzyme • Component 2:2 μL of compound solution • Component 3:4 μL of ATP and a biotin labeled peptide
(§3) The enzyme reaction begins by first mixing component 1 and component 2 and then adding component 3 thereto. After the reaction at 37° C. for 2 hours, […] of a measurement solution consisting of streptavidin-XL665 and a europium-labeled anti-phosphotyrosine antibody purchased from Cisbio was added to the enzyme reaction solution and reacted at room temperature for 1 hour. Finally, the ratio of fluorescence values at 615 nm and 665 nm was measured using Perkin-Elmer's Envision instrument to calculate enzyme activity and confirm the inhibitory ability of the compounds. The measured values at 7 compound concentrations were analyzed using the Prism program (version 5.01, Graphpad Software, Inc.), and the IC50 (μM) values, which are measures of the compounds' inhibitory activity, were calculated.

Assay [3] concerns the target EGFR A763_Y764insFHEA (Homo sapiens (Human), UniProt P00533, INS763FHEA). Put plainly: HTRF inhibitory activity against EGFR mutant enzyme (EGFR A763_Y764insFHEA). On the procedure: as §1, §2, §3

A word on the IC50: it is the concentration that inhibits the measured activity by half.

Sequence of EGFR del19 (P00533 other isoform, or with tags, fused parts or gaps del 1-668/del 746-750 limits assumed): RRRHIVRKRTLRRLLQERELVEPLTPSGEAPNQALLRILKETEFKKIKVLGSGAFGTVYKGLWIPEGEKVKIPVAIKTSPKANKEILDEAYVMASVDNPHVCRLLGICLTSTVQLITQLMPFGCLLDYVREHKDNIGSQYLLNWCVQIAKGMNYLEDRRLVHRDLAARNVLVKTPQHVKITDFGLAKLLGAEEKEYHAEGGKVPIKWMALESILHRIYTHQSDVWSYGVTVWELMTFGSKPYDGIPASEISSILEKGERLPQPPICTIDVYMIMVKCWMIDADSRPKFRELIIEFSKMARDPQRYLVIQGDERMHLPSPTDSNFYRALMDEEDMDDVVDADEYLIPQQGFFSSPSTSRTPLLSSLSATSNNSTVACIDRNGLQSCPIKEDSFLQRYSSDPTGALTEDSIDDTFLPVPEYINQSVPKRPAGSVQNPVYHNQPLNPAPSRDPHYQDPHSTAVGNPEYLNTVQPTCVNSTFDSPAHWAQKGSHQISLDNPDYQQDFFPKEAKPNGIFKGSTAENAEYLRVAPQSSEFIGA
Sequence of EGFR A763_Y764insFHEA (P00533 other isoform, or with tags, fused parts or gaps del 1-694/ins FHEA behind 763 limits assumed): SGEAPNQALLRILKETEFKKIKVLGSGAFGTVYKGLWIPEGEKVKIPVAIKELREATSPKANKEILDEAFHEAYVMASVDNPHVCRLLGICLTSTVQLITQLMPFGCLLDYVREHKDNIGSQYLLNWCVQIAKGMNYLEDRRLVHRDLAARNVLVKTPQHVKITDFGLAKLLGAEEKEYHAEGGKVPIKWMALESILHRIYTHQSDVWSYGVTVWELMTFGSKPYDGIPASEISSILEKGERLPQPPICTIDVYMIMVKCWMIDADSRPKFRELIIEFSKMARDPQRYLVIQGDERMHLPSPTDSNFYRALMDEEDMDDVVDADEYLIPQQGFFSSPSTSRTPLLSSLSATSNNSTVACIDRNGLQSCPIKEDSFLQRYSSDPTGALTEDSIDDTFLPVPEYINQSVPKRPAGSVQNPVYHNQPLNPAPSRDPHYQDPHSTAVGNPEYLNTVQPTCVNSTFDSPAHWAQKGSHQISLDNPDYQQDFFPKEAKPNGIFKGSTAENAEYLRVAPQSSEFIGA
Sequence of HER2 A775_G776insYVMA (P04626 other isoform, or with tags, fused parts or gaps del 1-675/ins YVMA behind 775 limits assumed): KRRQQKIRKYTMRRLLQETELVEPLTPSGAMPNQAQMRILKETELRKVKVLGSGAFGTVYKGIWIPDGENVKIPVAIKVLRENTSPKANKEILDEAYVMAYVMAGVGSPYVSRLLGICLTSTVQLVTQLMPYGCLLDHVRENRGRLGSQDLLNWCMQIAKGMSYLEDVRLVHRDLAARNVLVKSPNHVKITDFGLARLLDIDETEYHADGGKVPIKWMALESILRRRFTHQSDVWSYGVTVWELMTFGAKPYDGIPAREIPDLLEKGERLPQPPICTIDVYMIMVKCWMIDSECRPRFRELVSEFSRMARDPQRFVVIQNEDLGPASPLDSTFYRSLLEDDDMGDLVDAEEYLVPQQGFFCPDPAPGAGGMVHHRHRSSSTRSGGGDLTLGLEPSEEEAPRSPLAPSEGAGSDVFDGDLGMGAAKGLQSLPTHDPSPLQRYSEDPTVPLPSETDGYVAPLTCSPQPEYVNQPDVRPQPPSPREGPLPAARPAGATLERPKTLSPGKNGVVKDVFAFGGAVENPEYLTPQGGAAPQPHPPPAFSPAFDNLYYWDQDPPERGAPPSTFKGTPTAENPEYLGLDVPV

For `C=CC(=O)Nc1cc(Nc2nccc(Nc3ccccc3NS(=O)(=O)CCC)n2)c(OC)cc1N(C)CCN(C)C` [Example 8, N-(2-((2-(dimethylamino)ethyl)(methyl)amino)-4-methoxy-5-((4-((2-(propylsulfonamido)phenyl)amino)pyrimidin-2-yl)amino)phenyl)acrylamide], the IC50 in assay [1] was found to be 920 nM; in assay [2], 10 nM; in assay [3] it was 20 nM.

Take `C=CC(=O)Nc1cc(Nc2nccc(Nc3ccccc3NS(=O)(=O)c3ccc(C)cc3)n2)c(OC)cc1N(C)CCN(C)C` [Example 9, N-(2-((2-(dimethylamino)ethyl)(methyl)amino)-4-methoxy-5-((4-((2-((4-methylphenyl)sulfonamido)phenyl)amino)pyrimidin-2-yl)amino)phenyl)acrylamide]: the IC50 was determined as 2400 nM in assay [1], 20 nM in assay [2] and 90 nM in assay [3].

Regarding `C=CC(=O)Nc1cc(Nc2nccc(Nc3ccccc3NS(=O)(=O)CC)n2)c(OC)cc1N(C)CCN(C)C` [Example 10, N-(2-((2-(dimethylamino)ethyl)(methyl)amino)-5-((4-((2-(ethylsulfonamido)phenyl)amino)pyrimidin-2-yl)amino)-4-methoxyphenyl)acrylamide], the half-maximal inhibitory concentration (IC50) in assay [1] is 440 nM; in assay [2] it was less than 1 nM; in assay [3], 10 nM.

In the case of `C=CC(=O)Nc1cc(Nc2ncc(F)c(Nc3ccccc3NS(=O)(=O)CC)n2)c(OC)cc1N(C)CCN(C)C` [Example 12, N-(2-((2-(dimethylamino)ethyl)(methyl)amino)-5-((4-((2-(ethylsulfonamido)phenyl)amino)-5-fluoropyrimidin-2-yl)amino)-4-methoxyphenyl)acrylamide], the half-inhibitory concentration (IC50) in assay [1] was 69 nM; in assay [2], less than 1 nM; in assay [3], 4 nM.

As to `C=CC(=O)Nc1cc(Nc2ncc(F)c(Nc3ccccc3NS(=O)(=O)CCC)n2)c(OC)cc1N(C)CCN(C)C` [Example 13, N-(2-((2-(dimethylamino)ethyl)(methyl)amino)-5-((5-fluoro-4-((2-(propylsulfonamido)phenyl)amino)pyrimidin-2-yl)amino)-4-methoxyphenyl)acrylamide], the IC50 was 140 nM in assay [1], 2 nM in assay [2] and 10 nM in assay [3].

On to `C=CC(=O)Nc1cc(Nc2ncc(F)c(Nc3ccccc3NS(=O)(=O)c3ccccc3)n2)c(OC)cc1N(C)CCN(C)C` [Example 14, N-(2-((2-(dimethylamino)ethyl)(methyl)amino)-5-((5-fluoro-4-((2-(phenylsulfonamido)phenyl)amino)pyrimidin-2-yl)amino)-4-methoxyphenyl)acrylamide], for which the half-maximal inhibitory concentration (IC50) in assay [1] worked out at 410 nM; in assay [2] it was 1 nM; in assay [3], 2 nM.

`C=CC(=O)Nc1cc(Nc2ncc(F)c(Nc3ccccc3NS(=O)(=O)c3ccc(C)cc3)n2)c(OC)cc1N(C)CCN(C)C` [Example 15, N-(2-((2-(dimethylamino)ethyl)(methyl)amino)-5-((5-fluoro-4-((2-((4-methylphenyl)sulfonamido)phenyl)amino)pyrimidin-2-yl)amino)-4-methoxyphenyl)acrylamide]: the IC50 was 1200 nM in assay [1], 10 nM in assay [2] and 10 nM in assay [3].

Take `C=CC(=O)Nc1cc(Nc2ncc(C)c(Nc3ccccc3NS(=O)(=O)c3ccc(C)cc3)n2)c(OC)cc1N(C)CCN(C)C` [Example 17, N-(2-((2-(dimethylamino)ethyl)(methyl)amino)-4-methoxy-5-((5-methyl-4-((2-((4-methylphenyl)sulfonamido)phenyl)amino)pyrimidin-2-yl)amino)phenyl)acrylamide]: the IC50 in assay [1] came to 1100 nM; in assay [2] it was 10 nM; in assay [3], 20 nM.

For `C=CC(=O)Nc1cc(Nc2ncc(C)c(Nc3ccccc3NS(=O)(=O)CCC)n2)c(OC)cc1N(C)CCN(C)C` [Example 18, N-(2-((2-(dimethylamino)ethyl)(methyl)amino)-4-methoxy-5-((5-methyl-4-((2-(propylsulfonamido)phenyl)amino)pyrimidin-2-yl)amino)phenyl)acrylamide], the half-maximal inhibitory concentration (IC50) in assay [1] is 110 nM; in assay [2], less than 1 nM; in assay [3] it was 7 nM.

Take `C=CC(=O)Nc1cc(Nc2ncc(C)c(Nc3ccccc3NS(=O)(=O)CC)n2)c(OC)cc1N(C)CCN(C)C` [Example 19, N-(2-((2-(dimethylamino)ethyl)(methyl)amino)-5-((4-((2-(ethylsulfonamido)phenyl)amino)-5-methylpyrimidin-2-yl)amino)-4-methoxyphenyl)acrylamide]: the values for the half-maximal inhibitory concentration (IC50) in assay [1], in assay [2] and in assay [3] were 34 nM, less than 1 nM and 3 nM, respectively.

Regarding `C=CC(=O)Nc1cc(Nc2ncc(C)c(Nc3ccccc3NS(=O)(=O)c3ccccc3)n2)c(OC)cc1N(C)CCN(C)C` [Example 20, N-(2-((2-(dimethylamino)ethyl)(methyl)amino)-4-methoxy-5-((5-methyl-4-((2-(phenylsulfonamido)phenyl)amino)pyrimidin-2-yl)amino)phenyl)acrylamide], the concentration for half-maximal inhibition (IC50) amounted to 370 nM in assay [1], 2 nM in assay [2] and 6 nM in assay [3].

As to `C=CC(=O)Nc1cc(Nc2ncc(Cl)c(Nc3ccccc3NS(C)(=O)=O)n2)c(OC)cc1N(C)CCN1CCCCC1` [Example 23, N-(5-((5-chloro-4-((2-(methylsulfonamido)phenyl)amino)pyrimidin-2-yl)amino)-4-methoxy-2-(methyl(2-(piperidin-1-yl)ethyl)amino)phenyl)acrylamide], the 50% inhibitory concentration (IC50) in assay [1] is 30 nM; in assay [2], less than 1 nM; in assay [3] it was 3 nM.

For the compound `COc1cc(N2CCOCC2)c(NC(=O)/C=C/CN(C)C)cc1Nc1ncc(Cl)c(Nc2ccccc2NS(C)(=O)=O)n1` [Example 26, (E)-N-(5-((5-chloro-4-((2-(methylsulfonamido)phenyl)amino)pyrimidin-2-yl)amino)-4-methoxy-2-morpholinophenyl)-4-(dimethylamino)buten-2-amide], the half-inhibitory concentration (IC50) came to 80 nM in assay [1], 4 nM in assay [2] and 200 nM in assay [3].

Regarding `COc1cc(N2CCN(C)CC2)c(NC(=O)/C=C/CN(C)C)cc1Nc1ncc(Cl)c(Nc2ccccc2NS(C)(=O)=O)n1` [Example 27, (E)-N-(5-((5-chloro-4-((2-(methylsulfonamido)phenyl)amino)pyrimidin-2-yl)amino)-4-methoxy-2-(4-methylpiperazin-1-yl)phenyl)-4-(dimethylamino)buten-2-amide], the IC50 in assay [1] was determined as 30 nM; in assay [2], 3 nM; in assay [3], 9 nM.

`COc1cc(N(C)CCN(C)C)c(NC(=O)/C=C/CN(C)C)cc1Nc1ncc(Cl)c(Nc2ccccc2NS(C)(=O)=O)n1` [Example 28, (E)-N-(5-((5-chloro-4-((2-(methylsulfonamido)phenyl)amino)pyrimidin-2-yl)amino)-2-((2-(dimethylamino)ethyl)(methyl)amino)-4-methoxyphenyl)-4-(dimethylamino)buten-2-amide]: the values for the IC50 in assay [1], in assay [2] and in assay [3] were 70 nM, less than 1 nM and 8 nM, respectively.

As to `C=CC(=O)Nc1cc(Nc2ncc(Cl)c(Nc3cccc(Cl)c3NS(C)(=O)=O)n2)c(OC)cc1N(C)CCN(C)C` [Example 34, N-(5-((5-chloro-4-((3-chloro-2-(methylsulfonamido)phenyl)amino)pyrimidin-2-yl)amino)-2-((2-(dimethylamino)ethyl)(methyl)amino)-4-methoxyphenyl)acrylamide], the IC50 in assay [1] is 20 nM; in assay [2] it was less than 1 nM; in assay [3] it was 1 nM.
